The source of these data is patent EP0274444A2, “Solution inbuprofen complexes, compositions and processes for preparing the same” (priority 1987, dated 1988).

A short description of this series: pH of the resulting solutions (pH meter with combination electrode). In kind it is physicochemical. The following applies: Mole Ratio Cyclodextrin:Ibuprofen 0:1 (ibuprofen alone, saturated solution). The protocol: The pH of each solution was measured using an Orion Model 701 pH meter with a combination electrode.

On to `CC(C)Cc1ccc(C(C)C(=O)O)cc1` (stereo not shown) [Ibuprofen, ibuprofen], for which the pH is 4.56.
